From patent publication US9890133B2 (priority 2011, dated 2018) come the findings set out here.

Values after ≈ are worked out from the molar mass of the structure shown.

The nature of the data set: in vitro. As to conditions: human.

Take `Cc1ccc(C(=O)NC23C(=O)c4c(N)cccc4C2(O)Oc2cc(C(C)C)ccc23)s1` (stereo not drawn) [Example 216, N-(1-Amino-4b-hydroxy-7-isopropyl-10-oxo-9b,10-dihydro-4bH-indeno[1,2-b]benzofuran-9b-yl)-5-methylthiophene-2-carboxamide]: the CC50 turned out to be 9.69 µg/mL (≈ 22.3 µM). Moreover, the CC50 (Picorana CC50) was determined as 4.75 µg/mL (≈ 10.9 µM).

Take `CC(C)c1ccc2c(c1)OC1(O)c3ccccc3C(=O)C21NC(=O)c1ccccn1` (stereo not drawn) [Example 218, N-(4b-Hydroxy-7-isopropyl-10-oxo-9b,10-dihydro-4bH-indeno[1,2-b]benzofuran-9b-yl)picolinamide]: the CC50 is over 10 µg/mL. Also, for the setting “Picorana CC50”, the CC50 is 8.49 µg/mL (≈ 21.2 µM).

Molecule `CC(C)c1ccc2c(c1)OC1(O)c3ccccc3C(=O)C21NC(=O)c1ccncn1` (stereo not drawn) [Example 219, N-(4b-Hydroxy-7-isopropyl-10-oxo-9b,10-dihydro-4bH-indeno[1,2-b]benzofuran-9b-yl)pyrimidine-4-carboxamide] had a CC50 of over 10 µg/mL. Further, the CC50 (Picorana CC50) is 45.1 µg/mL (≈ 112 µM).

Turning to `CC(C)c1ccc2c(c1)OC1(O)c3ccccc3C(=O)C21NC(=O)Cc1nnn[nH]1` (stereo not drawn) [Example 220, N-(4b-Hydroxy-7-isopropyl-10-oxo-9b,10-dihydro-4bH-benzo[d]indeno[1,2-b]furan-9b-yl)-2-(1H-tetrazol-5-yl)acetamide], the CC50 is over 10 µg/mL. Where the note is “Picorana CC50”, this molecule showed a CC50 of over 50 µg/mL.

As for `CC(C)c1ccc2c(c1)OC1(O)c3ccccc3C(=O)C21NC(=O)c1nc[nH]n1` (stereo not drawn) [Example 222, N-(4b-Hydroxy-7-isopropyl-10-oxo-9b,10-dihydro-4bH-benzo[d]indeno[1,2-b]furan-9b-yl)-1H-1,2,4-triazole-3-carboxamide], the CC50 is over 10 µg/mL. The CC50 (Picorana CC50) worked out at 39.4 µg/mL (≈ 101 µM).

Regarding `CC(C)c1ccc2c(c1)OC1(O)c3ccccc3C(=O)C21NC(=O)c1cc(=O)[nH]c(=O)[nH]1` (stereo not drawn) [Example 224, N-(4b-Hydroxy-7-isopropyl-10-oxo-9b,10-dihydro-4bH-benzo[d]indeno[1,2-b]furan-9b-yl)-2,6-dioxo-1,2,3,6-tetrahydropyrimidine-4-carboxamide], the CC50 is over 10 µg/mL. The molecule further returned a CC50 (Picorana CC50) of over 50 µg/mL.

`CC(C)c1ccc2c(c1)OC1(O)c3ccccc3C(=O)C21NC(=O)c1cc2ccccc2oc1=O` (stereo not drawn) [Example 225, N-(4b-hydroxy-7-isopropyl-10-oxo-9b,10-dihydro-4bH-benzo[d]indeno[1,2-b]furan-9b-yl)-2-oxo-2H-chromene-3-carboxamide] returned a CC50 of over 10 µg/mL. The molecule also displayed a CC50 (Picorana CC50) of 22.9 µg/mL (≈ 48.9 µM).

Regarding `CC(C)c1ccc2c(c1)OC1(O)c3ccccc3C(=O)C21NC(=O)c1ccc(=O)oc1` (stereo not drawn) [Example 226, N-(4b-Hydroxy-7-isopropyl-10-oxo-9b,10-dihydro-4bH-benzo[d]indeno[1,2-b]furan-9b-yl)-2-oxo-2H-pyrane-5-carboxamide], the CC50 was over 10 µg/mL. Also, under “Picorana CC50”, the CC50 is 28.2 µg/mL (≈ 67.5 µM).

`CC(C)c1ccc2c(c1)OC1(O)c3ccccc3C(=O)C21NC(=O)c1nc2ccccc2[nH]1` (stereo not drawn) [Example 227, N-(4b-hydroxy-7-isopropyl-10-oxo-9b,10-dihydro-4bH-benzo[d]indeno[1,2-b]furan-9b-yl)-1H-benzo[d]imidazole-2-carboxamide] came in with a CC50 of over 10 µg/mL. The CC50 (Picorana CC50) was determined as 9.62 µg/mL (≈ 21.9 µM).

Turning to `Cc1onc(-c2c(F)cccc2Cl)c1C(=O)NC12C(=O)c3c(N)cccc3C1(O)Oc1cc(C(C)C)ccc12` (stereo not drawn) [Example 228, N-(1-Amino-4b-hydroxy-7-isopropyl-10-oxo-9b,10-dihydro-4bH-indeno[1,2-b]benzofuran-9b-yl)-3-(2-chloro-6-fluorophenyl)-5-methylisooxazole-4-carboxamide], the CC50 is over 10 µg/mL. This molecule also gave a CC50 (Picorana CC50) of 24.1 µg/mL (≈ 43.9 µM).

`CC(C)c1ccc2c(c1)OC1(O)c3ccccc3C(=O)C21NC(=O)c1cc(-c2ccccc2)n[nH]1` (stereo not drawn) [Example 229, N-(4b-hydroxy-7-isopropyl-10-oxo-9b,10-dihydro-4bH-indeno[1,2-b]benzofuran-9b-yl)-3-phenyl-1H-pyrazole-5-carboxamide]: the CC50 is 4.51 µg/mL (≈ 9.69 µM). For the setting “Picorana CC50”, this molecule yielded a CC50 of 8.63 µg/mL (≈ 18.5 µM).

`CC(C)c1ccc2c(c1)OC1(O)c3ccccc3C(=O)C21NC(=O)c1cccnc1` (stereo not drawn) [Example 230, N-(4b-Hydroxy-7-isopropyl-10-oxo-9b,10-dihydro-4bH-indeno[1,2-b]benzofuran-9b-yl)nicotinamide] had a CC50 of over 10 µg/mL. For the setting “Picorana CC50”, this molecule came in with a CC50 of 42.8 µg/mL (≈ 107 µM).

`CC(C)c1ccc2c(c1)OC1(O)c3cccc(N)c3C(=O)C21NC(=O)c1ccc(N)o1` (stereo not drawn) [Example 232, 5-amino-N-(1-amino-4b-hydroxy-7-isopropyl-10-oxo-9b,10-dihydro-4bH-indeno[1,2-b]benzofuran-9b-yl)furane-2-carboxamide] showed a CC50 of over 10 µg/mL. The molecule further had a CC50 (Picorana CC50) of over 50 µg/mL.

In turn, `Cc1onc(-c2c(Cl)cccc2Cl)c1C(=O)NC12C(=O)c3ccccc3C1(O)Oc1cc(C(C)C)ccc12` (stereo not drawn) [Example 236, 3-(2,6-dichlorophenyl)-N-(4b-hydroxy-7-isopropyl-10-oxo-9b,10-dihydro-4bH-benzo[d]indeno[1,2-b]furan-9b-yl)-5-methylisooxazole-4-carboxamide] had a CC50 of over 10 µg/mL. Also, the CC50 (Picorana CC50) was found to be 21.4 µg/mL (≈ 38.9 µM).

Take `CC(C)c1ccc2c(c1)OC1(O)c3cccc(N)c3C(=O)C21NC(=O)C1c2ccccc2Oc2ccccc21` (stereo not drawn) [Example 237, N-(1-Amino-4b-hydroxy-7-isopropyl-10-oxo-9b,10-dihydro-4bH-benzo[d]indeno[1,2-b]furan-9b-yl)-9H-xanthene-9-carboxamide]: the CC50 was over 10 µg/mL. In addition, the CC50 (Picorana CC50) turned out to be 6.27 µg/mL (≈ 12.1 µM).

As for `CC(C)c1ccc2c(c1)OC1(O)c3ccccc3C(=O)C21NC(=O)c1cnnc2ccccc12` (stereo not drawn) [Example 239, N-(4b-hydroxy-7-isopropyl-10-oxo-9b,10-dihydro-4bH-benzo[d]indeno[1,2-b]furan-9b-yl)cinnoline-4-carboxamide], the CC50 is over 10 µg/mL. Under “Picorana CC50”, this molecule had a CC50 of over 50 µg/mL.

The molecule `CC(C)c1ccc2c(c1)OC1(O)c3cccc(N)c3C(=O)C21NC(=O)c1c2ccccc2nc2ccccc12` (stereo not drawn) [Example 241, N-(1-Amino-4b-hydroxy-7-isopropyl-10-oxo-9b,10-dihydro-4bH-benzo[d]indeno[1,2-b]furan-9b-yl)acridine-9-carboxamide] had a CC50 of over 10 µg/mL. Further, the CC50 (Picorana CC50) came out at 7.86 µg/mL (≈ 15.2 µM).

`COc1cc(C(=O)NC23C(=O)c4c(N)cccc4C2(O)Oc2cc(C(C)C)ccc23)nc2ccccc12` (stereo not drawn) [Example 247, N-(1-Amino-4b-hydroxy-7-isopropyl-10-oxo-9b,10-dihydro-4bH-benzo[d]indeno[1,2-b]furan-9b-yl)-4-methoxyquinoline-2-carboxamide] showed a CC50 of over 10 µg/mL. The molecule further came in with a CC50 (Picorana CC50) of 20 µg/mL (≈ 40.4 µM).

The molecule `CC(C)c1ccc2c(c1)OC1(O)c3cccc(N)c3C(=O)C21NC(=O)c1cnccc1Cl` (stereo not drawn) [Example 254, N-(1-Amino-4b-hydroxy-7-isopropyl-10-oxo-9b,10-dihydro-4bH-indeno[1,2-b]benzofuran-9b-yl)-4-chloronicotinamide] gave a CC50 of over 10 µg/mL.

In turn, `CC(C)c1ccc2c(c1)OC1(O)c3cccc(N)c3C(=O)C21NC(=O)c1sc2ccccc2c1Br` (stereo not drawn) [Example 264] gave a CC50 of over 10 µg/mL.

Molecule `COc1c(C(=O)NC23C(=O)c4c(N)cccc4C2(O)Oc2cc(C(C)C)ccc23)cnc2ccc(F)cc12` (stereo not drawn) [Example 267, N-(1-Amino-4b-hydroxy-7-isopropyl-10-oxo-9b,10-dihydro-4bH-indeno[1,2-b]benzofuran-9b-yl)-6-fluoro-4-methoxyquinoline-3-carboxamide] yielded a CC50 of 0.86 µg/mL (≈ 1.67 µM). In addition, the CC50 (Picorana CC50) was 0.87 µg/mL (≈ 1.69 µM).

For the molecule `CC(C)c1ccc2c(c1)OC1(O)c3cccc(N)c3C(=O)C21NC(=O)c1sc2cc(F)ccc2c1Cl` (stereo not drawn) [Example 269, N-(1-Amino-4b-hydroxy-7-isopropyl-10-oxo-9b,10-dihydro-4bH-indeno[1,2-b]benzofuran-9b-yl)-3-chloro-6-fluorobenzo[b]thiophene-2-carboxamide], the CC50 is over 10 µg/mL.

Molecule `Cc1ccc2c(Cl)c(C(=O)NC34C(=O)c5c(N)cccc5C3(O)Oc3cc(C(C)C)ccc34)sc2c1` (stereo not drawn) [Example 270, N-(1-Amino-4b-hydroxy-7-isopropyl-10-oxo-9b,10-dihydro-4bH-indeno[1,2-b]benzofuran-9b-yl)-3-chloro-6-methylbenzo[b]thiophene-2-carboxamide] had a CC50 of 5.93 µg/mL (≈ 11.4 µM). Also, for the setting “Picorana CC50”, the CC50 stood at 6.57 µg/mL (≈ 12.7 µM).

Molecule `CC(C)c1ccc2c(c1)OC1(O)c3cccc(N)c3C(=O)C21NC(=O)c1ccc2nccnc2c1` (stereo not drawn) [Example 277, N-(1-Amino-4b-hydroxy-7-isopropyl-10-oxo-9b,10-dihydro-4bH-indeno[1,2-b]benzofuran-9b-yl)quinoxaline-6-carboxamide] returned a CC50 of over 10 µg/mL.

For the molecule `Cc1ccn2cc(C(=O)NC34C(=O)c5c(N)cccc5C3(O)Oc3cc(C(C)C)ccc34)nc2c1` (stereo not drawn) [Example 280, N-(1-Amino-4b-hydroxy-7-isopropyl-10-oxo-9b,10-dihydro-4bH-indeno[1,2-b]benzofuran-9b-yl)-7-methylimidazo[1,2-a]pyridine-2-carboxamide], the CC50 is over 10 µg/mL.

The molecule `Cc1cc(C)n2ncc(C(=O)NC34C(=O)c5c(N)cccc5C3(O)Oc3cc(C(C)C)ccc34)c2n1` (stereo not drawn) [Example 282, N-(1-Amino-4b-hydroxy-7-isopropyl-10-oxo-9b,10-dihydro-4bH-indeno[1,2-b]benzofuran-9b-yl)-5,7-dimethylpyrazolo[1,5-a]pyrimidine-3-carboxamide] gave a CC50 of over 10 µg/mL. The molecule also came in with a CC50 (Picorana CC50) of 6.78 µg/mL (≈ 14 µM).

Consider `CC(C)c1ccc2c(c1)OC1(O)c3cccc(N)c3C(=O)C21NC(=O)c1cc2ccccn2c1` (stereo not drawn) [Example 283, N-(1-Amino-4b-hydroxy-7-isopropyl-10-oxo-9b,10-dihydro-4bH-indeno[1,2-b]benzofuran-9b-yl) indolizine-2-carboxamide], for which the CC50 was over 10 µg/mL. For the same molecule, the CC50 (Picorana CC50) was 5.47 µg/mL (≈ 12.1 µM).

Molecule `CC(C)c1ccc2c(c1)OC1(O)c3cccc(N)c3C(=O)C21NC(=O)c1cc(C(C)C)nc2c1cnn2C(C)C` (stereo not drawn) [Example 284, N-(1-Amino-4b-hydroxy-7-isopropyl-10-oxo-9b,10-dihydro-4bH-indeno[1,2-b]benzofuran-9b-yl)-1,6-diisopropyl-1H-pyrazolo[3,4-b]pyridine-4-carboxamide] returned a CC50 of 3.71 µg/mL (≈ 6.88 µM). The same molecule displayed a CC50 (Picorana CC50) of 4.56 µg/mL (≈ 8.45 µM).
